Results published in patent US5489609A (Zaidan Hoijn Seisan Kaihatsu Kagaku Kenkyusho, priority 1992, dated 1996).

Assays:
[1] = test system: Hepatopathy in mice (carbon tetrachloride); test: Anti-hepatitis test: hepatopathy in mice (carbon tetrachloride); format: in vivo, ddy strain male mice; conditions: for ALT, mean ± S.D. / AST, mean ± S.D.: 200 mg/kg orally 3 h after carbon tetrachloride, blood 24 h after carbon tetrachloride, * p < 0.05
Experimental: A group of 8 ddy strain male mice (weighing about 30 g) kept fasting from the previous day was treated by intraperitoneal injection of 0.5% carbon tetrachloride in olive oil at a dose of 0.6 ml and thereafter allowed free access to food. Three hours after the administration of carbon tetrachloride, the test compound suspended in powdered gum arabic was given to the animals orally at a dose of 200 mg/kg, and blood samples were drawn from the mice under anesthesia with ether through the abdominal descending aorta 24 hours after the administration of carbon tetrachloride. The collected blood was centrifuged at a rate of 3,000 rpm for 15 min, followed by measurement of the activities of aspartate transaminase (AST) and alanine transaminase (ALT) by means of the Lippie method.

[2] = test system: isolated liver cells of rats; test: Disorder of isolated liver cells (carbon tetrachloride vapor; ALT and AST leached out); format: cell-based; conditions: 37° C., 30 min, * p < 0.05
Experimental: Isolated liver cells of rats were prepared by means of the Segren's collagenase irrigation method, whereby a liver cell suspension was prepared to a concentration of […]. Into 2 ml of the suspension placed in an Erlenmeyer flask was put a test tube of about 0.5 ml capacity containing a 25% carbon tetrachloride solution in olive oil to saturate the reaction system with carbon tetrachloride vapor, and after the flask was tightly stoppered, preincubation was carried out at 37° C. for 30 min. One ml of a solution of the test compound in Hunk's solution was added to the suspension of liver cells, while 1 ml of Hunk's solution was added to a control. After the reaction was allowed to proceed at 37° C. for 30 min, a specifically determined volume of the reaction solution was pipetted out and immediately centrifuged under 500 g for 30 seconds, and ALT and AST leached out into the supernatant liquid were determined for activity by the Lippie method.

acetaldehyde toxicity = test: Protective activity against acetaldehyde toxicity (death rate within 24 hours); format: in vivo, Rats; conditions: 30 min before acetaldehyde 1,200 mg/kg, 24 h
Experimental: Rats kept fasting with a supply of drinking water were weighed and divided into groups in such a manner that the mean body weight was uniform among the groups, with each group consisting of 10 heads. The rats were given acetaldehyde orally at a dose of 1,200 mg/kg, and the death rate within 24 hours was determined, wherein the test drug substances were administered orally 30 min before the application of acetaldehyde, with the vehicle (0.5% aqueous sodium carboxymethylcellulose) alone being given to a control group.

[3] = test system: Stomach injury with hydrochloric acid/ethanol; test: Anti-ulcer test: stomach injury with hydrochloric acid/ethanol; format: in vivo, male rats of KBL Wistar strain
Experimental: The rats were divided into groups each consisting of 8 heads in such a way that their mean body weights were nearly uniform among the groups, treated by oral administration of hydrochloric acid/ethanol (0.15 mole hydrochloric acid solution in 80% ethanol) at a dose of 5 ml/kg body weight and sacrificed through cervical vertebrae dislocation 1 hour after administration. The stomachs were removed and treated with formalin, and individual ulcers formed in the glandular portion of the stomach were measured in length (mm), with the measured ulcer lengths summed for each rat. The test compound was suspended in a 0.5% aqueous solution of sodium carboxymethylcellulose, and the suspension was given to the test group orally at a dose of 10 ml/kg body weight 30 min before administration of hydrochloric acid/ethanol, whereas the vehicle (0.5% aqueous sodium carboxymethyl-cellulose) alone was applied to a control group.

[4] = test system: Stomach injury through water-immersion constraint stress; test: Anti-ulcer test: stomach injury through water-immersion constraint stress; format: in vivo, male rats of KBL Wistar strain
Experimental: The rats were divided into groups each consisting of 8 heads in such a way that their mean body weights were nearly uniform among the groups, stress-loaded by soaking the animals placed in a stress cage of Univ. of Tokyo type in a water tank at 23° C. up to the xiphoid and then sacrificed through cervical vertebrae dislocation 7.5 hours later. The stomachs were removed and treated with formalin, and individual ulcers formed in the glandular portion of the stomach were measured in length (mm), with the measured ulcer lengths being summed for each rat. The test compound, suspended in a 0.5% aqueous solution of sodium carboxymethylcellulose, was given to the test group orally at a dose of 10 ml/kg body weight 30 min before the water-soaking constraint, whereas the vehicle alone was applied to a control group.

[5] = test system: Rats of KBL Wistar strain; test: Acute toxicity test; format: in vivo; conditions: 7 day period
Experimental: Rats of KBL Wistar strain (weighing about […]), divided into groups each consisting of 3 heads, were treated through oral administration of the test compound suspended in powder gum arabic, followed by observation for any abnormalities over a 7 day period to find the number of dead animals.

[6] = conc. of test soln. 0.0125 mg/dl
[7] = conc. of test soln. 0.025 mg/dl
[8] = 50 mg/kg orally, vs Vehicle No. 1
[9] = 150 mg/kg orally, vs Vehicle No. 3

NCCS(=O)(=O)O [2-Aminoethanesulfonic acid]
ALT, mean ± S.D. [1]: 14609.6 ± 1684.5 IU | AST, mean ± S.D. [1]: 12885.2 ± 2468.3 IU | suppressory activity (hepatopathy in mice) ([1]; 200 mg/kg orally, in words): none of 2-aminoethanesulfonic acid, glutathione and glycyrrhizin that were used as controls at the same dose developed suppressory activity | ALT, mean ± S.D. [2, 6]: 847.6 ± 60.4 IU | AST, mean ± S.D. [2, 6]: 338.8 ± 37.1 IU | ALT, mean ± S.D. [2, 7]: 869.8 ± 87.6 IU | AST, mean ± S.D. [2, 7]: 309.8 ± 32.4 IU | ALT, mean ± S.D. ([2]; conc. of test soln. 0.05 mg/dl): 849.1 ± 60.2 IU | AST, mean ± S.D. ([2]; conc. of test soln. 0.05 mg/dl): 296.3 ± 30.5 IU | ALT, mean ± S.D. ([2]; conc. of test soln. 0.1 mg/dl): 867.7 ± 158.8 IU | AST, mean ± S.D. ([2]; conc. of test soln. 0.1 mg/dl): 318.8 ± 49.5 IU | Death rate (acetaldehyde toxicity; 250 mg/kg orally): 60% | No. of dead animals (n/10) (acetaldehyde toxicity; 250 mg/kg orally): 6/10 | Death rate (acetaldehyde toxicity; 500 mg/kg orally): 50% | No. of dead animals (n/10) (acetaldehyde toxicity; 500 mg/kg orally): 5/10

NCCS(=O)(=O)O.NCCS(=O)(=O)O.NCCS(=O)(=O)[O-].NCCS(=O)(=O)[O-].[Zn+2] [FTZ, [Bis(2-aminoethanesulfonic acid).bis(2-aminoethanesulfonate)]zinc]
ALT, mean ± S.D. [1]: 8597.1 ± 1450.4 IU | AST, mean ± S.D. [1]: 7024.7 ± 1113.4 IU | ALT, mean ± S.D. [2, 6]: 414.7 ± 36.2 IU | AST, mean ± S.D. [2, 6]: 198.2 ± 22.5 IU | ALT, mean ± S.D. [2, 7]: 459.0 ± 93.8 IU | AST, mean ± S.D. [2, 7]: 186.8 ± 35.3 IU | ALT, mean ± S.D. ([2]; conc. of test soln. 0.05 mg/dl): 389.2 ± 7.3 IU | AST, mean ± S.D. ([2]; conc. of test soln. 0.05 mg/dl): 79.4 ± 12.3 IU | ALT, mean ± S.D. ([2]; conc. of test soln. 0.1 mg/dl): 435.7 ± 25.3 IU | AST, mean ± S.D. ([2]; conc. of test soln. 0.1 mg/dl): 33.5 ± 3.5 IU | Death rate (acetaldehyde toxicity; 250 mg/kg orally): 40% | No. of dead animals (n/10) (acetaldehyde toxicity; 250 mg/kg orally): 4/10 | Death rate (acetaldehyde toxicity; 500 mg/kg orally): 20% | No. of dead animals (n/10) (acetaldehyde toxicity; 500 mg/kg orally): 2/10 | Incidence of ulcer ([3]; 50 mg/kg orally): 8/8 | Ulcer coefficient (mm) mean ± S.E. ([3]; 50 mg/kg orally, * P < 0.01): 30.4 ± 7.8 mm | Suppression % [3, 8]: 35.5% | Incidence of ulcer ([3]; 75 mg/kg orally): 8/8 | Ulcer coefficient (mm) mean ± S.E. ([3]; 75 mg/kg orally): 30.2 ± 10.2 mm | Suppression % ([3]; 75 mg/kg orally, vs Vehicle No. 2): 42.5% | Incidence of ulcer ([3]; 150 mg/kg orally): 8/8 | Ulcer coefficient (mm) mean ± S.E. ([3]; 150 mg/kg orally, * P < 0.01): 11.7 ± 4.7 mm | Suppression % [3, 9]: 67.9% | UD50 (mg/kg) (95% C.L.) ([3]; oral, 30 min before hydrochloric acid/ethanol): 86.0 mg/kg | Incidence of ulcer ([4]; 50 mg/kg orally): 8/8 | Ulcer coefficient (mm) mean ± S.E. ([4]; 50 mg/kg orally): 28.5 ± 4.6 mm | Suppression % [4, 8]: 10.7% | Incidence of ulcer ([4]; 100 mg/kg orally): 8/8 | Ulcer coefficient (mm) mean ± S.E. ([4]; 100 mg/kg orally, * p < 0.01): 14.4 ± 3.2 mm | Suppression % ([4]; 100 mg/kg orally, vs Vehicle No. 2): 37.1% | Incidence of ulcer ([4]; 150 mg/kg orally): 8/8 | Ulcer coefficient (mm) mean ± S.E. ([4]; 150 mg/kg orally, ** p < 0.01): 17.9 ± 3.2 mm | Suppression % [4, 9]: 48.4% | UD50 (mg/kg) (95% C.L.) ([4]; oral, 30 min before water-soaking constraint): 146.9 mg/kg | Nd/No (No. of dead animals / total No.) ([5]; 1,250 mg/kg oral): 0/3 | Nd/No (No. of dead animals / total No.) ([5]; 2,500 mg/kg oral): 0/3 | Nd/No (No. of dead animals / total No.) ([5]; 5,000 mg/kg oral): 0/3
